Reference: patent publication US20260232767A1, “INTERLEUKIN-23 RECEPTOR ANTAGONIST PEPTIDES FOR USE IN THE TREATMENT OF PSORIASIS” (Janssen Pharmaceutica NV, priority 2023, published 2026)

Tested on: subjects with moderate-to-severe plaque psoriasis
Experiment: Safety, adverse events, Example 2 through Week 56
Type: in vivo, human
Source text: The LTE safety analysis was based on randomized participants in Example who entered the present long-term extension study and received at least one dose of study intervention (including a partial dose) during the study period.

[1] = 100 mg BID, Week 16 through Week 56
[2] = 100 mg BID, LTE Safety analysis set

## CC(=O)NCCCC[C@@H]1NC(=O)[C@H](Cc2c[nH]c3c(C)cccc23)NC(=O)[C@H]([C@@H](C)O)NC(=O)[C@H](CC(N)=O)NC(=O)[C@@H](NC(C)=O)C(C)(C)SSC(C)(C)[C@@H](C(=O)N[C@@H](Cc2ccc(OCCN)cc2)C(=O)N[C@@H](Cc2ccc3ccccc3c2)C(=O)NC2(C(=O)N[C@@H](CCC(=O)O)C(=O)N[C@@H](CC(N)=O)C(=O)N[C@@H](Cc3cccnc3)C(=O)N(C)CC(N)=O)CCOCC2)NC1=O [IL-23 receptor antagonist peptide, Ac-[Pen]*-N-T-[W(7-Me)]-[Lys(Ac)]-[Pen]*-Phe[4-(2-aminoethoxy)]-[2-Nal]-[THP]-E-N-[3-Pal]-Sarc-NH2 (*[Pen]-[Pen]* formdisulfidebond)]
50 mg QD, through Week 56
  Renal mass: number of subjects: 0
  Respiratory, thoracic and mediastinal disorders: % of subjects: (4.7%)
  Respiratory, thoracic and mediastinal disorders: number of subjects: 2
  Retinal vein occlusion: number of subjects: 0
  Rhinorrhoea: number of subjects: 0
  Seasonal allergy: % of subjects: (2.3%)
  Seasonal allergy: number of subjects: 1
  Skin and subcutaneous tissue disorders: % of subjects: (9.3%)
  Skin and subcutaneous tissue disorders: number of subjects: 4
  Skin laceration: number of subjects: 0
  Skin papilloma: % of subjects: (2.3%)
  Skin papilloma: number of subjects: 1
  Social circumstances: % of subjects: (2.3%)
  Social circumstances: number of subjects: 1
  Steatohepatitis: number of subjects: 0
  Subjects with AE leading to discontinuation: Abdominal discomfort: 0
  Subjects with AE leading to discontinuation: Alanine aminotransferase increased: 0
  Subjects with AE leading to discontinuation: Aspartate aminotransferase increased: 0
  Subjects with AE leading to discontinuation: Asthenia: 0
  Subjects with AE leading to discontinuation: Chills: 0
  Subjects with AE leading to discontinuation: Ear and labyrinth disorders: 0
  Subjects with AE leading to discontinuation: Gamma-glutamyltransferase increased: 0
  Subjects with AE leading to discontinuation: General disorders and administration site conditions: 0
  Subjects with AE leading to discontinuation: Headache: 0
  Subjects with AE leading to discontinuation: Insomnia: 0
  Subjects with AE leading to discontinuation: Investigations: 0
  Subjects with AE leading to discontinuation: Nervous system disorders: 0
  Subjects with AE leading to discontinuation: Proctalgia: 0
  Subjects with AE leading to discontinuation: Psoriasis: 0
  Subjects with AE leading to discontinuation: Psychiatric disorders: 0
  Subjects with AE leading to discontinuation: Skin and subcutaneous tissue disorders: 0
  Subjects with AE leading to discontinuation: Suicide attempt: 0
  Subjects with AE leading to discontinuation: Transaminases increased: 0
  Subjects with AE leading to discontinuation: Vertigo: 0
  Subjects with AE leading to discontinuation: Vomiting: 0
  Subjects with AE leading to discontinuation: Weight increased: 0
  Subjects with COVID-19 associated AE: SARS-CoV-2 test positive: 0
  Subjects with treatment-emergent serious AE: COVID-19: 0
  Subjects with treatment-emergent serious AE: Cerebrovascular accident: 0
  Subjects with treatment-emergent serious AE: Diverticulitis: 0
  Subjects with treatment-emergent serious AE: Injury, poisoning and procedural complications: 0
  Subjects with treatment-emergent serious AE: Intervertebral disc protrusion: 0
  Subjects with treatment-emergent serious AE: Ligament injury: 0
  Subjects with treatment-emergent serious AE: Neoplasms benign, malignant and unspecified (incl cysts and polyps): 0
  Subjects with treatment-emergent serious AE: Nervous system disorders: 0
  Subjects with treatment-emergent serious AE: Psychiatric disorders: 0
  Subjects with treatment-emergent serious AE: Respiratory, thoracic and mediastinal disorders: 0
  Subjects with treatment-emergent serious AE: Suicide attempt: 0
  Subjects with treatment-emergent serious AE: Tonsillar hypertrophy: 0
  Subjects with treatment-emergent serious AE: Uterine leiomyoma: 0
  Subjects with treatment-emergent serious AE: Ventricular dysfunction: 0
  Suicide attempt: number of subjects: 0
  Sunburn: number of subjects: 0
  Thrombocytopenia: number of subjects: 0
  Thrombocytosis: number of subjects: 0
  Tonsillar hypertrophy: number of subjects: 0
  Tooth fracture: number of subjects: 0
  Type 2 diabetes mellitus: number of subjects: 0
  Urinary tract disorder: number of subjects: 0
  Uterine leiomyoma: number of subjects: 0
  Vascular disorders: % of subjects: (2.3%)
  Vascular disorders: number of subjects: 1
  Ventricular dysfunction: number of subjects: 0
  Vertigo: number of subjects: 0
  Vitamin D deficiency: number of subjects: 0
[1]
  Number of subjects with treatment-emergent AE: Cholelithiasis: 0
  Number of subjects with treatment-emergent AE: Ear and labyrinth disorders: 0
  Number of subjects with treatment-emergent AE: Endocrine disorders: 0
  Number of subjects with treatment-emergent AE: Eye disorders: 0
  Number of subjects with treatment-emergent AE: Eyelid skin dryness: 0
  Number of subjects with treatment-emergent AE: Goiter: 0
  Number of subjects with treatment-emergent AE: Hepatobiliary disorders: 0
  Number of subjects with treatment-emergent AE: Hypertransaminasemia: 0
  Number of subjects with treatment-emergent AE: Immune system disorders: 1
  Number of subjects with treatment-emergent AE: Insomnia: 0
  Number of subjects with treatment-emergent AE: Ocular cyst: 0
  Number of subjects with treatment-emergent AE: Psychiatric disorders: 0
  Number of subjects with treatment-emergent AE: Retinal vein occlusion: 0
  Number of subjects with treatment-emergent AE: Seasonal allergy: 1
  Number of subjects with treatment-emergent AE: Vertigo: 0
  Subjects with treatment-emergent AE: Immune system disorders (%): (2.6%)
  Subjects with treatment-emergent AE: Seasonal allergy (%): (2.6%)
[2]
  Subjects who discontinued study agent because of 1 or more adverse events: 0
  Subjects with 1 or more Serious Infections and infestations: 0
  Subjects with adverse event: Arthralgia: 0
  Subjects with adverse event: Bronchitis: 0
  Subjects with adverse event: Headache: 0
  Subjects with adverse event: Meniscus injury: 0
  Subjects with adverse event: Sinusitis: 0
  Subjects with adverse event: Vomiting: 0
  Subjects with serious adverse event: Cerebrovascular accident: 0
  Subjects with serious adverse event: Coronary artery disease: 0
  Subjects with serious adverse event: Diverticulitis: 0
  Subjects with serious adverse event: Foot deformity: 0
  Subjects with serious adverse event: Intervertebral disc protrusion: 0
  Subjects with serious adverse event: Ligament injury: 0
  Subjects with serious adverse event: Non-cardiac chest pain: 0
  Subjects with serious adverse event: Tonsillar hypertrophy: 0
  Subjects with serious adverse event: Ventricular dysfunction: 0
100 mg BID, Week 16-56
  Subjects with 1 or more treatment-emergent adverse events leading to discontinuation of study agent: 0
  Subjects with AE leading to discontinuation: Alanine aminotransferase increased: 0
  Subjects with AE leading to discontinuation: Aspartate aminotransferase increased: 0
  Subjects with AE leading to discontinuation: Asthenia: 0
  Subjects with AE leading to discontinuation: Chills: 0
  Subjects with AE leading to discontinuation: Ear and labyrinth disorders: 0
  Subjects with AE leading to discontinuation: Gamma-glutamyltransferase increased: 0
  Subjects with AE leading to discontinuation: Gastrointestinal disorders: 0
  Subjects with AE leading to discontinuation: General disorders and administration site conditions: 0
  Subjects with AE leading to discontinuation: Headache: 0
  Subjects with AE leading to discontinuation: Insomnia: 0
  Subjects with AE leading to discontinuation: Investigations: 0
  Subjects with AE leading to discontinuation: Nervous system disorders: 0
  Subjects with AE leading to discontinuation: Proctalgia: 0
  Subjects with AE leading to discontinuation: Psoriasis: 0
  Subjects with AE leading to discontinuation: Psychiatric disorders: 0
  Subjects with AE leading to discontinuation: Skin and subcutaneous tissue disorders: 0
  Subjects with AE leading to discontinuation: Vertigo: 0
  Subjects with AE leading to discontinuation: Vomiting: 0
  Subjects with treatment-emergent AE: Arthralgia: 0
  Subjects with treatment-emergent AE: Bronchitis: 0
  Subjects with treatment-emergent AE: Gastrointestinal disorders: 0
